Experimental data published in PMC7827406, “Structure–Activity Relationship (SAR) Study of Spautin-1 to Entail the Discovery of Novel NEK4 Inhibitors” (International Journal of Molecular Sciences, 2021).
Like-named read-outs stand apart in the source and are kept apart here.

Experiments:
PI3KC2g(h) = biological target: T1, PI3KC2g(h) (Homo sapiens, UniProt O75747); assay: biochemical; design: Eurofins KinaseProfiler full panel at Km ATP, residual kinase activity (%) relative to DMSO
T1 construct: gene PIK3C2G
T1 sequence (O75747 1-1486): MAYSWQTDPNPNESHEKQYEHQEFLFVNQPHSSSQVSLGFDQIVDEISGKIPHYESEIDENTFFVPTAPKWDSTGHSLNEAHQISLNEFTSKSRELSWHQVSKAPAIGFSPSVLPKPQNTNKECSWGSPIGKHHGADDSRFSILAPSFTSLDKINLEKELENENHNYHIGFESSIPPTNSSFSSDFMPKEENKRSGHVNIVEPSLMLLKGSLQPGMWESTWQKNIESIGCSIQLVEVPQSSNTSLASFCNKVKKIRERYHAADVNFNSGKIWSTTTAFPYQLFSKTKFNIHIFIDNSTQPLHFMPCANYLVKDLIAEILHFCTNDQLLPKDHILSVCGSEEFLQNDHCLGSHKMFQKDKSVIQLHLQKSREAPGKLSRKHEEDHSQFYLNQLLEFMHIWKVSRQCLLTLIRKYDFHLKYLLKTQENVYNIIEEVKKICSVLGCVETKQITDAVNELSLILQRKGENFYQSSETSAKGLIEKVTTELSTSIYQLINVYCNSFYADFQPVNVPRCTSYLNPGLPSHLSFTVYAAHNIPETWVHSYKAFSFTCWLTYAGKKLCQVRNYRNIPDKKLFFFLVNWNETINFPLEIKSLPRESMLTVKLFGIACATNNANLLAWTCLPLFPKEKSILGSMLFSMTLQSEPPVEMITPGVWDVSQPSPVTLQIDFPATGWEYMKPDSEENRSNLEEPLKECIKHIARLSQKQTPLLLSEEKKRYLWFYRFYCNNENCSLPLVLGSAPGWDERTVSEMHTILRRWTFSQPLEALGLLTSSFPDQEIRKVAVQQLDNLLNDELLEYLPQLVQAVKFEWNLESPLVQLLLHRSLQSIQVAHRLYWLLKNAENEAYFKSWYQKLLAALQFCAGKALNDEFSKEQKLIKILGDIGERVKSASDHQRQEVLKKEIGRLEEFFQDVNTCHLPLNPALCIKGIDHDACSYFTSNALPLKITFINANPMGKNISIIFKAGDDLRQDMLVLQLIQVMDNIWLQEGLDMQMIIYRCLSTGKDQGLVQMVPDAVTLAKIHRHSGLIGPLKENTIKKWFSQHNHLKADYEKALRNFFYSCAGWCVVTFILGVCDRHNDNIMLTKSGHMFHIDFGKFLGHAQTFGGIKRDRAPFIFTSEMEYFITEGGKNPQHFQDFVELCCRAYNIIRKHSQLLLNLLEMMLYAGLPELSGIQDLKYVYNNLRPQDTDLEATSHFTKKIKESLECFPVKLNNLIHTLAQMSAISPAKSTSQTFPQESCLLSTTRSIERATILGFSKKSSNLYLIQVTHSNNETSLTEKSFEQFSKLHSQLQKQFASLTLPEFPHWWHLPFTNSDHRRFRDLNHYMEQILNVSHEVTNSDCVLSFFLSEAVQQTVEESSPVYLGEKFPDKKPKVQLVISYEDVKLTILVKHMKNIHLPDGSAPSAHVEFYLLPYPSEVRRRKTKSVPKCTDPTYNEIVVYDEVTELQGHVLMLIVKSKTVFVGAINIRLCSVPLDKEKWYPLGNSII
Summary of the method: (§1)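 Compounds screened at 10 µM in radiometric kinase activity assays at Km ATP, reported as remaining kinase activity (%). A KINOMEscan competition-binding screen at 10 µM measured DNA-tagged kinase retained on immobilized active-site ligand by qPCR.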

IRE1(h) = biological target: T2, IRE1(h) (Homo sapiens, UniProt O75460); assay: biochemical; design: Eurofins KinaseProfiler full panel at Km ATP, residual kinase activity (%) relative to DMSO
T2 construct: gene ERN1
Summary of the method: as §1

[1] = read-out: Residual activity (%) Spautin-1 5aa
[2] = read-out: Residual activity (%) 5as
[3] = read-out: Residual activity (%) 5at
[4] = read-out: Residual activity (%) 5ay

T2 sequence (O75460 whole entry): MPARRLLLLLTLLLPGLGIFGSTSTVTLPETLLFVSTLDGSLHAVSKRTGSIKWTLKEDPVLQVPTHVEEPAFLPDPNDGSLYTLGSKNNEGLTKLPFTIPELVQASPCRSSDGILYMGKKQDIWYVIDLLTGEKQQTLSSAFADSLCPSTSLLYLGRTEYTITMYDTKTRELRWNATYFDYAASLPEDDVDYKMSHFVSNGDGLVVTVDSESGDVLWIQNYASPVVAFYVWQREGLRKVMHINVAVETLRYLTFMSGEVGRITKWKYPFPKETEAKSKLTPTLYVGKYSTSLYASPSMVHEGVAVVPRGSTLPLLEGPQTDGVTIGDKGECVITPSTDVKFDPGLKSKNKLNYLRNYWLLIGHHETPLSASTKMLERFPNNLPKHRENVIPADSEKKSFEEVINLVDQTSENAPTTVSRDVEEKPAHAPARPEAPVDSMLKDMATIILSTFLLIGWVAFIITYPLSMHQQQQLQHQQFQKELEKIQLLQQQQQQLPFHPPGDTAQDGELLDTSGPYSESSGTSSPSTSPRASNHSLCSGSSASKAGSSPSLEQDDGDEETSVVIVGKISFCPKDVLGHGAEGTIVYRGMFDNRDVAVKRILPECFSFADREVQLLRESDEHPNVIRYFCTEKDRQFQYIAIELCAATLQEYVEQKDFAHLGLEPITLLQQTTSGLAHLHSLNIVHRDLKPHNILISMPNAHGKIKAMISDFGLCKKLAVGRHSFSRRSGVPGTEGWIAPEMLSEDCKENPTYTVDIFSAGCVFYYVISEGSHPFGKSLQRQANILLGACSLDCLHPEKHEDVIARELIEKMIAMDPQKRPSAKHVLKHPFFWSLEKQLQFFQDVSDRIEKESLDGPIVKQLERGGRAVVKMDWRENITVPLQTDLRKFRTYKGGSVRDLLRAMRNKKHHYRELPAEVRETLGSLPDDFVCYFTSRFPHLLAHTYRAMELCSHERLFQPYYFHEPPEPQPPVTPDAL

Fc1ccc(CNc2ncnc3ccc(F)cc23)cc1 [5aa, 6-Fluoro-N-(4-fluorobenzyl)-4-Quinazolinamine]
remaining activity at 10 µM (PI3KC2g(h); [1]): 70% | remaining activity at 10 µM (IRE1(h); [1]): 99%

Fc1ccc(CCNc2ncnc3ccc(F)cc23)cc1 [5as, 6-Fluoro-N-[2-(4-Fluorophenyl)Ethyl]-4-Quinazolinamine]
remaining activity at 10 µM (PI3KC2g(h); [2]): 57% | remaining activity at 10 µM (IRE1(h); [2]): 89%

Fc1ccc2ncnc(NCCc3ccc(Cl)cc3)c2c1 [5at, N-[2-(4-Chlorophenyl)Ethyl]-6-Fluoro-4-Quinazolinamine]
remaining activity at 10 µM (PI3KC2g(h); [3]): 34% | remaining activity at 10 µM (IRE1(h); [3]): 88%

COc1ccc2ncnc(Nc3cccc(F)c3)c2c1 [5ay, N-(3-Fluorophenyl)-6-Methoxy-4-Quinazolinamine]
remaining activity at 10 µM (PI3KC2g(h); [4]): 40% | remaining activity at 10 µM (IRE1(h); [4]): 83%
